Source: patent publication US10238118B2 (priority 2011, dated 2019)

Test system: Xylella fastidiosa (Xf)
Type: cell-based
Details: single metabolite from Cochliobolus sp. extract, identified by NMR and MS

C/C=C/c1cc2c(c(=O)o1)C(=O)[C@@H](O)[C@H](C)O2 [radicinin]
anti-Xf inhibitory activity of the isolated metabolite: inhibitory activity
